{
  "source": "patent US12152012B2",
  "about": "“BRAG2 inhibitors and applications thereof” (CENTRE NATIONAL DE LA RECHERCHE SCIENTIFIQUE, priority 2018, dated 2024)",
  "key": {"[1]": {"system": "EEA1 (early endosome marker) in Hela cells", "assay": "Immunostaining and confocal microscopy of Hela cells", "assay_type": "cell-based, human", "settings": "50 μM, 30 min", "protocol": "FIG. 1. Bragsin2 affects Arf pathways in cells • a. Chemical structures of Bragsin1 and Bragsin2 and derivatives used in this study. Chemical synthesis and structural characterization of the compounds are described in example 6. • b. Bragsin2 disperses the TGN46 and GM130 markers. HeLa cells were treated with either DMSO (0.25%) or Bragsin2 (50 μM) for 30 min, immunostained for TGN46, GM130 or EEA1 (green channel) and analysed by confocal microscopy. Dispersion of GM130 and TGN46 by Bragsin2 is reversible. Hela cells were treated as in FIG. 1a and were incubated for an additional 30 min in fresh medium (wash panel) prior to immunostaining and confocal microscopy analysis. Expression of Arf-mCherry constructs carrying an activating mutation rescues the effect of Bragsin2. Hela cells were transfected with constitutively active Q/L mutants of Arf-mCherry. Note the difference between non-transfected cells (white asterisk) and transfected cells. Scale bars, 10 μm.\nHela cells were grown in Dulbecco's modified Eagle's medium supplemented with Glutamax™ and 10% fetal bovine serum (Invitrogen). For immunofluorescence studies, cells were grown on Labtek glass slides (Nunc) and transfected for 18 to 24 h using Lipofectamine 2000 (Invitrogen), according to the supplier's instructions. When specified, cells were treated with the indicated concentration of small molecule or corresponding volume of vehicle (DMSO) in growth medium for 30 min at 37° C.\n(§1) Immunostaining procedure was as described in (Viaud, J. et al. Structure-based discovery of an inhibitor of Arf activation by Sec7 domains through targeting of protein-protein complexes. Proc Natl Acad Sci USA 104, 10370-5 (2007)) except that secondary antibody incubation was performed for 1h using Alexa 488-conjugated goat anti-mouse (1:600) or donkey anti-sheep (1:500) IgG and Alexa 647-conjugated phalloidin (1:100). Anti-GM130 was used at dilution 1:200. Images were bidirectionally recorded using an inverted Leica TCS SP8 laser-scanning confocal microscope with a 100× (N. A. 1.40) oil objective (HCX APO, Leica). Fluorochromes were detected sequentially using excitation laser lines at 488 nm (Alexa 488), 594 nm (mCherry) and 633 nm (Alexa 647). Stacks were generated using a z-step of 0.5 μm and processed using Fiji/ImageJ (Schindelin, J. et al. Fiji: an open-source platform for biological-image analysis. Nat Methods 9, 676-82 (2012)). Images are representative of at least two independent experiments."}, "[2]": {"system": "tubulin and actin networks in Hela cells", "assay": "Immunostaining and confocal microscopy of Hela cells", "assay_type": "cell-based, human", "settings": "50 μM, 30 min", "protocol": "FIG. 10: Bragsin2 has no effect on the tubulin and actin networks in Hela cells. HeLa cells were treated with either DMSO (0.25%) or Bragsin2 (50 μM) for 30 min, immunostained for α-tubulin (green channel) or F-actin (magenta channel) and analysed by confocal microscopy.\nHela cells were grown in Dulbecco's modified Eagle's medium supplemented with Glutamax™ and 10% fetal bovine serum (Invitrogen). For immunofluorescence studies, cells were grown on Labtek glass slides (Nunc) and transfected for 18 to 24 h using Lipofectamine 2000 (Invitrogen), according to the supplier's instructions. […]\nas §1, with “Anti-GM130 was used at dilution 1:200.” left out, “Stacks were generated using a z-step of 0.5 μm and processed using Fiji/ImageJ (Schindelin, J. et al. Fiji: an open-source platform for biological-image analysis. Nat Methods 9, 676-82 (2012)). Images are representative of at least two independent experiments.” left out"}},
  "data": [
    {"smiles": "COc1ccc2oc(C(F)(F)F)cc(=O)c2c1[N+](=O)[O-]", "note": "[Bragsin2, 6-methoxy-5-nitro-2-(trifluoromethyl)-4H-chromen-4-one]", "values": [
      {"measurement": "Effect on early endosome marker EEA1", "setting": "[1]", "result": "no effect"},
      {"measurement": "Effect on tubulin and actin networks", "setting": "[2]", "result": "no effect"}
    ]}
  ]
}
